Earlier results in US12605385B2, “Methotrexate formulation” (Therakind Ltd., priority 2014, dated 2026).
Read-outs that look alike come from different tables or passages of the source.

Experiments:
[1] = 50% v/v propylene glycol: water formulation

solubility (in alkaline solution): freely soluble
solubility (in hydrochloric acid): slightly soluble
solubility (in water, alcohol, chloroform and ether): almost insoluble
drug solubility on increasing the vehicle pH to 6.34 [1]: further increased
solubility at pH 5.29 compared with pH 4 [1]: significantly higher
SMILES: CN(Cc1cnc2nc(N)nc(N)c2n1)c1ccc(C(=O)N[C@@H](CCC(=O)O)C(=O)O)cc1 [Methotrexate, 4-amino-N^10-methylpteroylglutamic acid]
